Like-named read-outs stand apart in the source and are kept apart here.
Experiments:
CHO-K1 cells = experiment: Reversal of DFMO-induced cytostasis by exogenous spermidine in CHO-K1 cells; type: cell-based, Chinese hamster; conditions: DFMO-treated CHO-K1 cells with extracellular spermidine; data not shown
Description: (§1) FIGS. 8A and 8B are graphs representing the time course of the effect of a compound used in a method according to a preferred embodiment of the invention on rescue of DFMO-induced cytostasis by exogenous spermidine. In particular, at time zero, T-47D (panel A) or CHO-K1 (panel B) were seeded at 1×10^4 or 5×10^3 cells/well, respectively, in medium containing 1 mM aminoguanidine, plus either 0.3 μM spermidine (Spd, ●), 2 mM DFMO (□), Spd+DFMO (▪), 50 μM (A) or 100 μM (B) BNSD-X (Δ), BNSD-X+Spd (▴), BNSD-X+DFMO (□), BNSD-X+Spd+DFMO (▾), or vehicle only (∘). At the indicated time, total DNA content/well was determined. Data are presented as the mean±SD for triplicate cultures from one representative experiment;
(§2) To determine the ability of polyamine transport antagonists to potentiate DFMO-induced inhibition of cell proliferation in the presence of exogenous polyamines, cells were grown for the indicated period in growth medium supplemented with 1 mM aminoguanidine, and either DFMO (1 to 5 mM), the indicated transport inhibitor (50 or 100 μM), or the combination thereof, as well as increasing concentrations of spermidine (0.1 to 300 μM). Fresh medium was added every other day, and cell mass was determined at various time points during the period of exponential growth, or at the end of the experimental period. For the latter experiments, the FBS supplement was replaced with dextran-coated charcoal-treated FBS (5%, v/v) plus 0.5 μg/ml insulin in the case of T-47D, ZR-75-1 and MCF-7 cells (U.S. Pat. No. 6,083,496).

T-47D cells [1] = experiment: Reversal of DFMO-induced cytostasis by exogenous spermidine in T-47D cells; type: cell-based, human; conditions: T-47D cells with extracellular spermidine and DFMO
Description: FIGS. 6A, 6B, 6C and 6D are graph showing that antagonism of DFMO-induced cytostasis by exogenous spermidine depends on the polyamine and linker structure of the compounds used in a method according to a preferred embodiment of the invention. In particular, T-47D cells were grown for 8-9 d with the indicated concentrations of spermidine in medium containing 1 mM aminoguanidine, in the presence of DFMO (●), transport inhibitor (□), DFMO plus transport inhibitor (▪), or in the absence of either agent (∘), and total DNA content per culture was then determined. Panels A, B, C, and D describe the effect of BNSD-X, BSD-X, BNSD-3 and BSD-3, respectively. Data are presented as the mean±SD for triplicate cultures from one out of at least two identical experiments;
as §1, §2

T-47D cells [2] = experiment: Effect of inhibitors on T-47D cell proliferation (DNA content); type: cell-based, human
Description: FIGS. 3A and 3B are graphs showing the effect compounds used in a method according preferred embodiment of the present invention, on cell proliferation. In particular, they relate to the effect of selected BSD and BNSD derivatives on T-47D cell proliferation. Cells were incubated for 9 d with the indicated concentrations of BSD-2 (∘), BNSD-4 (●), BSD-4 (□), BNSD-6 (▪), BSD-10 (Δ), BSD-4-ene (▴) and BSD-4-yne (▾) in medium containing 1 mM aminoguanidine, and total DNA content per culture was then determined. B, Effect of BNSD-X (N,N,N′,N′-tetrakis-(3-aminopropyl)-p-diaminoxylene) on cell proliferation in various mammalian cell lines. Jurkat (∘), LAN-1 (●), L1210 (□), T-47D (▪), ZR-75-1 (Δ) and MDA-MB-231 (▴) cells were grown to near confluency or saturation (for 4 to 11 d according to the cell line considered) with the indicated concentrations of BNSD-X in the presence of 1 mM aminoguanidine, and total DNA content per culture was then determined. Data are given as the mean±SD for triplicate cultures from one out of at least two identical experiments;
FIGS. 4A and 4B are graphs showing how compounds used in a method according to a preferred embodiment are differentially sensitive to degradation by BSAO (bovine serum amine oxidase). In particular, T-47D cells were incubated for 9 d with the indicated concentrations of BSD-X (∘), BNSD-X (●), BSD-3 (□) or BNSD-3 (▪) in the absence (A) or presence of 1 mM aminoguanidine (B), and total DNA content per culture was then determined. Data are presented as the mean±SD for triplicate cultures from one representative experiment;
The effect of transport inhibitors on cell proliferation was evaluated by determination of cell number (L1210, Jurkat) using electronic sizing with a Model ZM Coulter counter (Coulter Electronics, Hialeah, Fla.), or DNA content per culture (for all other cell lines) with the 3,5-diaminobenzoic acid assay. […] Cytotoxicity of the inhibitors was determined in the presence or absence of aminoguanidine, and was confirmed by a trypan blue exclusion assay.

[3] = tested on: mammalian polyamine carrier; experiment: Determination of polyamine uptake activity: inhibition of diamine and polyamine transport in T-47D cells; type: cell-based, human; conditions: for Ki: mean±SD
Description: The rate of diamine and polyamine transport was determined in T-47D and ZR-75-1 cells incubated in serum-free RPMI 1640 medium as previously described (U.S. Pat. No. 6,083,496; Covassin et al. (1999) Bioorg. Med. Chem. Lett. 9, 1709-1714), using 20 μM [^3H]putrescine (179 Ci/mol), 5 μM [^3H]spermidine (246 Ci/mol) and 3 μM [^14C]spermine (300-400 mCi/mol) respectively, as substrates for a 20-min assay period. Uptake activity was expressed per amount of DNA as fluorometrically determined using 3,5-diaminobenzoic acid (Simard et al. (1990) Endocrinology 126, 3223-3231). Kinetic parameters of polyamine transport inhibition for the transport antagonists were determined by Lineweaver-Burke analysis of uptake activity in the presence of 0.1 μM [^3H]putrescine, 0.03 μM [^3H]spermidine, and 0.01 μM [^14C]spermine plus increasing concentrations of nonradioactive substrate. For competitive inhibitors, Ki values were estimated by iterative curve fitting for sigmoidal equations describing transport rates in the presence of increasing concentrations of antagonist, using the Cheng-Prusoff equation for competitive inhibition (U.S. Pat. No. 6,083,496).
The ability of BSD and BNSD compounds to inhibit uptake of the main natural substrates of the mammalian polyamine carrier, namely putrescine, spermidine and spermine, was evaluated using T-47D human breast cancer cells (Table 1).
Data are presented as the mean±SD of at least two independent determinations of IC50 values, each based on triplicate determinations of uptake velocity at increasing inhibitor concentrations.
The potency of the polyamines and their xylylated dimers as competitive inhibitors of spermidine transport was evaluated in the T-47D human breast cancer cell line (Table 2).

[4] = tested on: CHO-K1, Jurkat, L1210, MDA-MB-231, ZR-75-1 and MCF-7 cells; experiment: Reversal of DFMO-induced cytostasis by exogenous spermidine in a variety of mammalian cell lines; type: cell-based; conditions: most cell lines; concentrations as low as
Description: FIGS. 5A, 5B, 5C, 5D, 5E and 5F are graphs representing that a compound used in a method according to a preferred embodiment antagonizes rescue of DFMO-induced cytostasis by exogenous spermidine. In particular, CHO-K1 (A), Jurkat (B), L1210 (C), MDA-MB-231 (D), ZR-75-1 (E) and MCF-7 cells (F) were grown to near confluency or saturation (for 4 to 11 d according to the cell line considered) with the indicated concentrations of spermidine in medium containing 1 mM aminoguanidine, in the presence of DFMO (●), BNSD-X (□), DFMO plus BNSD-X (▪), or in the absence of either agent (∘), and total DNA content per culture was then determined. The optimal concentration of either DFMO (1 to 5 mM) or BNSD-X (50 or 100 μM) was used for the each cell line as determined in pilot experiments. Data are presented as the mean±SD for triplicate cultures from one out of at least three identical experiments for each cell line;
as §2

[5] = T-47D breast cancer cells, read-out: Ki, inhibition of [3H]putrescine uptake
[6] = T-47D breast cancer cells, read-out: Ki, inhibition of [3H]spermidine uptake
[7] = T-47D breast cancer cells, read-out: Ki, inhibition of [14C]spermine uptake

In the case of NCCCN(CCCN)CCCN(CCCN)CCCN [19a], the “effect on spermidine-mediated reversal of DFMO-induced growth inhibition, CHO-K1” value (CHO-K1 cells) is reported as “exhibited no activity”, the “effect on spermidine-mediated reversal of DFMO-induced growth inhibition, T-47D” value (T-47D cells [1]) is reported as “exhibited no activity” and the “cytotoxicity in the absence of aminoguanidine” value (T-47D cells [2]) is reported as “considerably more cytotoxic than their spermidine-like homologs”. For the same molecule, the Ki [3, 5] was 1600 ± 400 nM, the Ki [3, 6] was 8300 ± 800 nM and the Ki [3, 7] was 6200 ± 1700 nM. For the same molecule, the “times less potent than BSD-3 as a spermidine transport antagonist” value ([3]; T-47D cells) was “about 5 times”.

NCCCCN(CCCN)Cc1ccc(CN(CCCN)CCCCN)cc1 [28b] was tested, and the “effect on spermidine-mediated reversal of DFMO-induced growth inhibition, CHO-K1” value (CHO-K1 cells) was “afforded increased resistance to exogenous spermidine”, the “effect on spermidine-mediated reversal of DFMO-induced growth inhibition, T-47D” value (T-47D cells [1]) was “did not increase the range of spermidine concentrations able to reverse inhibition of cell proliferation by DFMO” and the Ki [3, 5] was 280 ± 20 nM. It also gave a Ki [3, 6] of 2000 ± 200 nM and a Ki [3, 7] of 2900 ± 600 nM.

With NCCCCNCCCN [Spermidine, reference compound] the “spermidine concentration that completely counteracts DFMO-induced cytostasis” value [4] was 0.3 to 1 µM, the Km ([3]; T-47D breast cancer cells, substrate itself, read-out: Km for [3H]spermidine uptake) was 4.4 ± 0.9 µM and the Km ([3]; T-47D cells, Lineweaver-Burke analysis, 0.01-300 μM substrate, read-out: Km for spermidine uptake (Table 2)) was 4.4 ± 0.9 µM.
